The source made the active and inactive calls. No cut-off for these calls is given here.
What was measured:
[1] = target: T1, 5-hydroxytryptamine receptor 3A (Homo sapiens, UniProt P46098); assay: Displacement of [3H]GR65630 from 5-HT3 receptor (unknown origin) expressed in mouse/rat NG108-15 cells after 30 mins by liquid scintillation counting analysis; format: cell-based
T1 sequence (P46098 whole entry): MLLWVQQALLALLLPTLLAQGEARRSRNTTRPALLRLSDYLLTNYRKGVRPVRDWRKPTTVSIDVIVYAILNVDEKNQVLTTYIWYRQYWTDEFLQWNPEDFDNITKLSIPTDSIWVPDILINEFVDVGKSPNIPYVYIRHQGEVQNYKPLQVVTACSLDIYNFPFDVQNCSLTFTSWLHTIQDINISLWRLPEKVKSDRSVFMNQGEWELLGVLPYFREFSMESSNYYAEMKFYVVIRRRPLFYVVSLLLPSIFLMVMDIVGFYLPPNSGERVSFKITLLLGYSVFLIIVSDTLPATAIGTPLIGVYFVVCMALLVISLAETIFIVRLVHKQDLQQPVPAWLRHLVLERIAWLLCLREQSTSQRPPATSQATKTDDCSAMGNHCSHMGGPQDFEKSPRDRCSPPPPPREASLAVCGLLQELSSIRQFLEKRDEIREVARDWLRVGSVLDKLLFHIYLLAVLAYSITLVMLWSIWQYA

[2] = target: T1, 5-hydroxytryptamine receptor 3A; assay: Displacement of [3H]GR65630 from human 5-HT3A receptor expressed in HEK293 cells by liquid scintillation counting analysis; format: cell-based
Mus musculus = assay: Antidepressant activity in ICR mouse assessed as immobility time at 20 mg/kg, ip by tail suspension test; format: functional, organism-based; parameters: dose 20 mg/kg

Row | Structure (SMILES) | Activity (Mus musculus) | further results
1 | NC(N)=Nc1cccc(Cl)c1 | – | Ki [1]: 32 nM
2 | CN1CCN2c3ncccc3Cc3ccccc3C2C1 (centres undefined) [MIRTAZAPINE] | – | Ki [2]: 2900 nM
3 | CN(C)CCCN1c2ccccc2CCc2ccccc21 | Active | –
4 | CNCCCN1c2ccccc2CCc2ccccc21 | Active | –
